Results published in US4956294A, “Culture of Streptoverticillium synroense for producing an antibacterial” (Merck & Co., Inc., priority 1989, dated 1990).
Values after ≈ are worked out from the molar mass of the structure shown.

Assays:
[1] = system: Brucella bronchiseptica 965; test: microbe, parasite or virus in culture; format: cell-based; conditions: Bordetella bronchiseptica, 965, read-out: Inhibition Zone Diameter
E. coli TEM 2+ DC2 4352 = test: Agar dilution, trypticase soy agar; conditions: Escherichia coli, 20 h
[2] = system: Ps. aeruginosa RPL11+ 3350; test: Agar dilution, trypticase soy agar; conditions: Pseudomonas aeruginosa, 20 h
[3] = system: Peptostreptococcus anaerobius 3282; test: Anaerobic agar dilution, Wilkens-Chalgren agar; format: cell-based; conditions: Peptostreptococcus anaerobius, 3282, 48 h
Ent. cloacae P99- 2647 = test: Agar dilution, antagonist-free medium; conditions: Enterobacter cloacae, P992647, 20 h
E. coli 2891 = test: Agar dilution, trypticase soy agar; conditions: Escherichia coli, 2891, 20 h
[4] = system: Erwinia atroseptica 1159 (4446); test: Inhibition zone, agar plate; format: cell-based; conditions: Pectobacterium atrosepticum, 15λ, read-out: Inhibition Zone Diameter
Ser. marcescens 2840 = test: Agar dilution, antagonist-free medium; conditions: Serratia marcescens, 2840, 20 h

Compound: C[C@H](CNC(=O)[C@H]1N=C(c2cccc(O)c2O)O[C@@H]1C)C(=O)N[C@@H]1CCCN(O)C1=O [L-654,040, 2-(2,3-dihydroxyphenyl)-4,5-dihydro-N-[3-[(1-hydroxy-2-oxo-3(R)-piperidinyl)-amino]-2(R)-methyl-3-oxopropyl]-5R-methyl-4S-oxazolecarboxamide]
- zone of inhibition at 500 µg/mL [1]: 16 mm
- zone of inhibition at 2000 µg/mL [1]: 24 mm
- MIC (E. coli TEM 2+ DC2 4352): 128 µg/mL (≈ 295 µM)
- MIC [2]: > 128 µg/mL
- MIC [3]: > 128 µg/mL
- MIC (Ent. cloacae P99- 2647): > 256 µg/mL
- MIC (E. coli 2891): > 128 µg/mL
- zone of inhibition at 500 µg/mL ([4]; 0.5 mg/ml in distilled H2O): 0 mm
- zone of inhibition at 2000 µg/mL ([4]; 2 mg/ml in distilled H2O): 0 mm
- MIC (Ser. marcescens 2840): > 256 µg/mL
